Experimental data taken from article PMC7377239, “Cardiovascular Effects of Polychlorinated Biphenyls and Their Major Metabolites” (Environmental Health Perspectives, 2020).
Where two headings read alike, the source gives them in different places.

Tested on: iCell cardiomyocytes (human iPSC-derived cardiomyocytes)
Test: Intracellular Ca2+ flux / beating parameters in iCell cardiomyocytes (FLIPR tetra), 90 min or 24 h
Assay type: cell-based
Conditions: Homo sapiens, Cardiomyocyte, 0.00 µM = 100.00; for activity at 0.1 µM: 0.10 µM
Method in brief: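 Gelatin-plated iCell cardiomyocytes (5,000/well) were dye-loaded for 2 h at 37 °C, then exposed for 90 min or 24 h to PCBs/metabolites (5× plates at 0.05–500 µM; 0.5% DMSO final) in triplicate. Ca2+ flux was read for 100 s at 8 Hz and 37 °C. Peak height, frequency, spacing CV and decay/rise ratio were vehicle-normalized and fitted with a four-parameter logistic model, with POD set at 1 SD of vehicle.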

[1] = 1.5 h, read-out: cm.amp.avg.90min
[2] = 1.5 h, read-out: cm.amp.cv.90min
[3] = 1.5 h, read-out: cm.decay.rise.90min
[4] = 1.5 h, read-out: cm.spacing.cv.90min
[5] = 24 h, read-out: cm.amp.avg.24hrs
[6] = 24 h, read-out: cm.amp.cv.24hrs
[7] = 24 h, read-out: cm.decay.rise.24hrs
[8] = 24 h, read-out: cm.spacing.cv.24hrs

## O=C1C=CC(=O)C(c2ccc(Cl)cc2)=C1 [4-Cl-BQ, 2-(4-Chlorophenyl)benzo-2,5-quinone]
[1]
  activity at 0.01 µM: 91.7%
  activity at 0.1 µM: 92.1%
  activity at 1 µM: 92.1%
  activity at 10 µM: 101%
  activity at 100 µM: 0%
[2]
  activity at 0.01 µM: 113%
  activity at 0.1 µM: 88.6%
  activity at 1 µM: 105%
  activity at 10 µM: 118%
  activity at 100 µM: 0%
1.5 h, read-out: cm.bpm.90min
  activity at 0.01 µM: 103%
  activity at 0.1 µM: 100%
  activity at 1 µM: 95.3%
  activity at 10 µM: 124%
  activity at 100 µM: 0%
[3]
  activity at 0.01 µM: 99.5%
  activity at 0.1 µM: 96.6%
  activity at 1 µM: 107%
  activity at 10 µM: 104%
  activity at 100 µM: 0%
[4]
  activity at 0.01 µM: 135%
  activity at 0.1 µM: 99.9%
  activity at 1 µM: 104%
  activity at 10 µM: 225%
  activity at 100 µM: 0%
[5]
  activity at 0.01 µM: 112%
  activity at 0.1 µM: 97.3%
  activity at 1 µM: 105%
  activity at 10 µM: 45.5%
  activity at 100 µM: 0%
[6]
  activity at 0.01 µM: 125%
  activity at 0.1 µM: 130%
  activity at 1 µM: 96.8%
  activity at 10 µM: 56.6%
  activity at 100 µM: 0%
24 h, read-out: cm.bpm.24hrs
  activity at 0.01 µM: 101%
  activity at 0.1 µM: 100%
  activity at 1 µM: 93.6%
  activity at 10 µM: 64.9%
  activity at 100 µM: 0%
[7]
  activity at 0.01 µM: 85.3%
  activity at 0.1 µM: 96.8%
  activity at 1 µM: 103%
  activity at 10 µM: 72.1%
  activity at 100 µM: 0%
[8]
  activity at 0.01 µM: 104%
  activity at 0.1 µM: 92.5%
  activity at 1 µM: 98.4%
  activity at 10 µM: 63.9%
  activity at 100 µM: 0%

## Oc1ccc(-c2cccc(Cl)c2)cc1Cl [4-OH PCB11]
[1]
  activity at 0.01 µM: 107%
  activity at 0.1 µM: 96%
  activity at 1 µM: 103%
  activity at 10 µM: 89.2%
  activity at 100 µM: 0%
[2]
  activity at 0.01 µM: 101%
  activity at 0.1 µM: 97.9%
  activity at 1 µM: 91.8%
  activity at 10 µM: 99%
  activity at 100 µM: 0%
1.5 h, read-out: cm.bpm.90min
  activity at 0.01 µM: 107%
  activity at 0.1 µM: 102%
  activity at 1 µM: 99.1%
  activity at 10 µM: 104%
  activity at 100 µM: 0%
[3]
  activity at 0.01 µM: 99.5%
  activity at 0.1 µM: 94.9%
  activity at 1 µM: 96.5%
  activity at 10 µM: 94.9%
  activity at 100 µM: 0%
[4]
  activity at 0.01 µM: 111%
  activity at 0.1 µM: 90.9%
  activity at 1 µM: 95.9%
  activity at 10 µM: 104%
  activity at 100 µM: 0%
[5]
  activity at 0.01 µM: 93.8%
  activity at 0.1 µM: 110%
  activity at 1 µM: 92.2%
  activity at 10 µM: 135%
  activity at 100 µM: 0%
[6]
  activity at 0.01 µM: 28.6%
  activity at 0.1 µM: 104%
  activity at 1 µM: 98.4%
  activity at 10 µM: 67.1%
  activity at 100 µM: 0%
24 h, read-out: cm.bpm.24hrs
  activity at 0.01 µM: 46.8%
  activity at 0.1 µM: 92.6%
  activity at 1 µM: 89.7%
  activity at 10 µM: 93.6%
  activity at 100 µM: 0%
[7]
  activity at 0.01 µM: 48.9%
  activity at 0.1 µM: 109%
  activity at 1 µM: 99.3%
  activity at 10 µM: 106%
  activity at 100 µM: 0%
[8]
  activity at 0.01 µM: 46.2%
  activity at 0.1 µM: 104%
  activity at 1 µM: 89.5%
  activity at 10 µM: 91.5%
  activity at 100 µM: 0%
